Experimental data from patent publication US20020049169A1, “Method for reducing toxicity of combined chemotherapies” (priority 2000, published 2002).
“Also recorded” adds a separate entry of the source.

Legend:
Format in all cases: biochemical
human cardiac cytosol [1] = experiment: Reconstitution of DOX metabolism and DOXol formation, plus or minus taxanes, in human cardiac cytosol; conditions: for stimulation of DOXol formation (in words): [4Fe-4S]-depleted human cardiac cytosol, DOX 25 μM, taxane 1-50 μM, 4 h; for cytoplasmic conversion of DOX to doxorubicinol: human cardiac cytosol, n=3
From the text: (§1) The enzymes of DOX metabolism are strongly species-related. To avoid the potential pitfalls associated with studies in animal models, an in vitro human heart assay was utilized. The assay involves isolation of both cytosolic fractions generating DOXol, and microsomal fractions converting DOX to free radicals.
Reconstitution of DOX Metabolism and DOXol Formation, Plus or Minus Taxanes, in Human Cardiac Cytosol.
(§2) Human myocardium is obtained from patients undergoing aorto-coronary bypass grafting. All samples were routinely disposed of by the surgeons from the lateral aspect of excluded right atrium during cannulation procedures for cardio-pulmonary by-pass. After storage at −80° C., pools of 15-20 samples are processed for cytosol preparation by sequential homogenization, ultracentrifugation and overnight 65% ammonium sulfate precipitation of 105,000 g supernatants. Next, cytosol is dialyzed against 100 mM Tris HCl-40 mM KCl, pH 8.9, diluted to 3 mg protein/ml with the same buffer, and incubated for 15 minutes at room temperature with 100 mM dithiothreitol to promote non-denaturing disassembly of the [4Fe-4S] cluster of cytoplasmic aconitase. This treatment is necessary as reactions of DOXol with [4Fe-4S] clusters would convert this metabolite back to DOX. Sizable amounts of DOXol would therefore go undetected if they reacted with [4Fe-4S] clusters prior to their assay. Unreacted dithiothreitol was eventually removed by sequential gel filtration on (1.5×10 cm) Sepharose 6B columns, protein reprecipitation with 65% ammonium sulfate, and extensive dialysis against 0.3 M NaCl, pH 7.0. Doxorubicin metabolism was reconstituted in 0.5 ml incubations containing cytosol (0.15 mg protein), NADPH (100 μM) and DOX (25 μM), in 0.3 M NaCl (pH 7.0) 37° C. Where indicated ethanol-dissolved taxanes (1-50 μM) were included. Aliquots of taxane-free ethanol (5 μl) were included as appropriate to adjust the final volume to 10 μl in all incubations. After 4 h DOX and DOXol were extracted with 2 ml of CHCl3/CH3OH (1:1) and separated by previously validated two-dimensional TLC on (20×20 cm) […] F524 Silica Gel Plates, using CHCl3/CH3OH/CH3COOH/H2O (80:20:14:6) as mobile phase in either dimension. Doxorubicinol was identified by cochromatography with (S)-DOXol from Streptomyces peucetius or (S)(R)-DOXol purified after NaBH4 reduction of DOX. Where indicated incubations were prepared by replacing DOX with DOX aglycone and by measuring formation of DOXol aglycone. The latter was separated from DOX aglycone by using CHCl3/CH3OH/CH3COOH (100:2:5) and CH3COOC2H5—CH3CH2OH—CH3COOH—H2O (80:10:5:5) in the first and second dimension, respectively. DOX aglycone was purified after thermoacid hydrolysis of DOX.

human cardiac cytosol [2] = experiment: Conversion of DOX aglycone into DOXol aglycone, plus or minus taxanes, in human cardiac cytosol; conditions: for stimulation of conversion of DOX aglycone into DOXol aglycone (in words): DOX aglycone in place of DOX, plus taxane; for cytoplasmic conversion of doxorubicinone to doxorubicinolone: n=3
From the text: as §1, §2

[3] = test system: NADPH cytochrome P-450 reductase; experiment: NADPH oxidation by deoxycholate-solubilized microsomes of human heart, plus or minus taxanes; conditions: 10 μM DOX, 1-10 μM taxane
Procedure: (§3) Reconstitution of DOX Metabolism and Free Radical Formation, Plus or Minus Taxanes, in Human Cardiac Microsomes.
(§4) 105,000 g pellets from human myocardium homogenates are solubilized with deoxycolate and reconstituted at the final concentration of 0.025 mg prot/ml with 10 μM DOX, 1-10 μM taxane, 0.1 mM NADPH, in 0.3 M NaCl, pH 7.0, 37° C.
(§5) Electron flow from NADPH cytochrome P-450 reductase to the quinone moiety of DOX is detected by monitoring NADPH oxidation. Redox coupling of the semiquinone with oxygen is detected by monitoring formation of the superoxide anion radical with the superoxide dismutase-inhibitable reduction of cytochrome c (25 μM). These assays are performed in a Hewlett Packard 8453A UV/VIS/NIR spectrometer equipped with computer-assisted corrections for scatter and turbidity.

human cardiac microsomes = experiment: Superoxide anion formation (superoxide dismutase-inhibitable reduction of cytochrome c) by deoxycholate-solubilized human cardiac microsomes; conditions: for effect of taxane on DOX-dependent superoxide anion formation (in words): DOX plus 10 μM taxane; for generation of superoxide anion radicals in microsomal fractions: human cardiac microsomes, n=4-10
Procedure: as §3, §4, §5

[4] = deoxycholate-solubilized microsomes
[5] = taxane 1 μM with doxorubicinone
[6] = DOX alone, no taxane (baseline)

Row | Compound | stimulation of DOXol formation (in words) (human cardiac cytosol [1]) | stimulation of conversion of DOX aglycone into DOXol aglycone (in words) (human cardiac cytosol [2]) | effect on NADPH oxidation in the presence of DOX (in words) [3] | effect of taxane on DOX-dependent superoxide anion formation (in words) (human cardiac microsomes; [4]) | cytoplasmic conversion of DOX to doxorubicinol (human cardiac cytosol [1]; taxane 1 μM with DOX) [nmol/mg prot./4 h] | cytoplasmic conversion of doxorubicinone to doxorubicinolone (human cardiac cytosol [2]; [5]) [nmol/mg prot./4 h] | cytoplasmic conversion of DOX to doxorubicinol (human cardiac cytosol [1]; [6]) [nmol/mg prot./4 h] | generation of superoxide anion radicals in microsomal fractions (human cardiac microsomes; [6]) [nmol/mg prot./min] | effect of DOX on superoxide anion formation (in words) (human cardiac microsomes; deoxycholate-solubilized microsomes, DOX without taxane) | generation of superoxide anion radicals in microsomal fractions (human cardiac microsomes; taxane 10 μM with DOX) [nmol/mg prot./min] | cytoplasmic conversion of doxorubicinone to doxorubicinolone (human cardiac cytosol [2]; doxorubicinone alone, no taxane (baseline)) [nmol/mg prot./4 h]
1 | CSCO[C@H]1C[C@H]2OC[C@@]2(OC(C)=O)[C@H]2[C@H](OC(=O)c3ccccc3)[C@]3(O)C[C@H](OC(=O)[C@H](O)[C@@H](NC(=O)c4ccccc4)c4ccccc4)C(C)=C([C@@H](OC(C)=O)C(=O)[C@]12C)C3(C)C [7-methylthiomethyl taxol] | did not increase; also recorded: did not stimulate DOXol formation at any of the concentrations tested | did not increase; also recorded: has not been found to stimulate the formation of DOXol aglycone | appeared to inhibit NADPH oxidation | did not increase; also recorded: did not afford any significant stimulation |  |  |  |  |  |  | 
2 | CC(=O)O[C@@]12CO[C@@H]1C[C@H](O)[C@@]1(C)C(=O)[C@H](O)C3=C(C)[C@@H](OC(=O)[C@H](O)[C@@H](NC(=O)OC(C)(C)C)c4ccccc4)C[C@@](O)([C@@H](OC(=O)c4ccccc4)[C@H]21)C3(C)C [DCT, docetaxel] | stimulate DOXol formation | able to stimulate the conversion of DOX aglycone into DOXol aglycone |  | significant increase in superoxide formation | 1.2±0.2 | 1.3±0.2 |  |  |  |  | 
3 | COc1cccc2c1C(=O)c1c(O)c3c(c(O)c1C2=O)C[C@@](O)(C(=O)CO)C[C@@H]3O[C@H]1C[C@H](N)[C@H](O)[C@H](C)O1 [DOX, doxorubicin] |  |  |  |  |  |  | 0.46±0.04 | 1.6±0.1 | able to enhance superoxide anion formation |  | 
4 | CC(=O)O[C@H]1C(=O)[C@@]2(C)[C@H]([C@H](OC(=O)c3ccccc3)[C@]3(O)C[C@H](OC(=O)[C@H](O)[C@@H](NC(=O)c4ccccc4)c4ccccc4)C(C)=C1C3(C)C)[C@]1(OC(C)=O)CO[C@@H]1C[C@@H]2O [PTX, paclitaxel] | stimulate DOXol formation | able to stimulate the conversion of DOX aglycone into DOXol aglycone | able to stimulate NADPH oxidation | significant increase in superoxide formation | 1.1±0.2 | 1.4±0.2 |  |  |  | 2.2±0.2 | 
5 | COc1cccc2c1C(=O)c1c(O)c3c(c(O)c1C2=O)C[C@@](O)(C(=O)CO)C[C@@H]3O [doxorubicinone] |  |  |  |  |  |  |  |  |  |  | 0.8±0.1
